Read-outs that look alike come from different tables or passages of the source.
Tests used:
MES-SA cells = assay: PrestoBlue viability assay, MES-SA cells; details: for pIC50 value MES-SA: MES-SA cells, without TQ
A431-B1 cells = assay: PrestoBlue viability assay, A431-B1 (A431-ABCB1) cells; details: read-out: pIC50 A431-B1, SARM figure (converted)
MES-SA/Dx5 cells = assay: PrestoBlue viability assay, MES-SA/Dx5 cells (MDR, P-gp positive); details: for SR: selectivity ratio MES-SA vs MES-SA/Dx5, without TQ; for pIC50 value MES-SA/Dx5: MES-SA/Dx5 cells, without TQ; for SR_TQ: selectivity ratio MES-SA vs MES-SA/Dx5, with TQ
[1] = Homo sapiens, MES-SA, 72 h, read-out: IC50 / μM MES-SA, absence of TQ, 72 h incubation
[2] = Homo sapiens, MES-SA, read-out: pIC50 value MES-SA, MES-SA cells, without TQ (converted)
[3] = Homo sapiens, MES-SA/Dx5, 72 h, read-out: IC50 / μM MES-SA/Dx5, absence of TQ, 72 h incubation
[4] = Homo sapiens, MES-SA/Dx5, read-out: pIC50 value MES-SA/Dx5, MES-SA/Dx5 cells, without TQ (converted)
[5] = read-out: IC50 / μM MES-SA, absence of TQ, 72 h incubation
[6] = read-out: IC50 / μM MES-SA/Dx5, absence of TQ, 72 h incubation
[7] = Homo sapiens, MES-SA, read-out: pIC50 value MES-SA+TQ, MES-SA cells, with TQ (converted)
[8] = Homo sapiens, MES-SA/Dx5, read-out: pIC50 value MES-SA/Dx5 + TQ, MES-SA/Dx5 cells, with TQ (converted)

Row | SMILES | IC50 (MES-SA cells; [1]) [µM] | IC50 (MES-SA cells; [2]) [µM] | IC50 (MES-SA/Dx5 cells; [3]) [µM] | IC50 (MES-SA/Dx5 cells; [4]) [µM] | SR (MES-SA/Dx5 cells) | SR_TQ (MES-SA/Dx5 cells) | also measured
1 | Oc1c(C(c2cccnc2)N2CCCC2)ccc2cccnc12 (centres unmarked) [Compound 85] | 41 | 40.7 | 23.3 | 23.4 | 1.76 | – | IC50 (A431-B1 cells): 52.5 µM
2 | Oc1c(C(c2ccncc2)N2CCCCC2)ccc2cccnc12 (centres unmarked) [Compound 93] | – | – | – | – | 1.93 | 1.1 | pIC50 value MES-SA (MES-SA cells): 4.81; IC50 (MES-SA cells; [5]): 16.2 ± 4.33 µM; pIC50 value MES-SA/Dx5 (MES-SA/Dx5 cells): 5.08; IC50 (MES-SA/Dx5 cells; [6]): 8.39 ± 1.09 µM
3 | CC(=O)c1ccc(O)c(CN2CCCCC2)c1 [Compound 62] | > 100 | – | > 100 | – | – | – | –
4 | COc1ccc(O)c(CN2CCN(C)CC2)c1 [Compound 73] | > 100 | – | > 100 | – | – | – | –
5 | Oc1ccccc1CN1CCOCC1 [Compound 65] | > 100 | – | > 100 | – | – | – | –
6 | CN1CCN(C(c2cccs2)c2ccc3cccnc3c2O)CC1 (centres unmarked) [Compound 113] | 12.8 ± 1.72 | 12.6 | 16.79 ± 0.08 | 16.6 | 0.76 | – | –
7 | CCN1CCN(C(c2cccnc2)c2ccc3cccnc3c2O)CC1 (centres unmarked) [Compound 115] | 20.6 ± 1.85 | 20.4 | 10.3 ± 3.54 | 9.77 | 1.99 | 1.05 | IC50 (MES-SA cells; [7]): 24 µM; IC50 (MES-SA/Dx5 cells; [8]): 22.9 µM
8 | Oc1c(C(c2ccccn2)N2CCOCC2)ccc2cccnc12 (centres unmarked) [Compound 103] | 23.6 ± 3.13 | 23.4 | 14.6 ± 2.97 | 14.1 | 1.62 | – | –
9 | CC1CCN(C(c2ccncc2)c2ccc3cccnc3c2O)CC1 (centres unmarked) [Compound 100] | – | – | – | – | 2.74 | 4.37 | pIC50 value MES-SA (MES-SA cells): 4.78; IC50 (MES-SA cells; [5]): 17.1 ± 3.89 µM; pIC50 value MES-SA/Dx5 (MES-SA/Dx5 cells): 5.21; IC50 (MES-SA/Dx5 cells; [6]): 6.24 ± 1.17 µM
10 | Oc1ccccc1CN1CCCCC1 [Compound 59] | > 100 | – | > 100 | – | – | – | –
11 | Cc1ccc(C(c2cc(Cl)c3cccnc3c2O)N2CCCC2)cc1 (centres unmarked) [Compound 91] | 13.2 ± 3.09 | 12.9 | 6.06 ± 2.21 | 5.62 | 2.18 | 3.8 | IC50 (MES-SA cells; [7]): 8.91 µM; IC50 (MES-SA/Dx5 cells; [8]): 2.34 µM
12 | CCN1CCN(C(c2ccccn2)c2cc(Cl)c3cccnc3c2O)CC1 (centres unmarked) [Compound 117] | 28.3 ± 2.32 | 28.2 | 24.4 ± 3.58 | 24 | 1.16 | – | –
13 | Oc1ccc(CN2CCOCC2)c2cccnc12 [Compound 54] | 6.99 ± 0.31 | 6.92 | 9.58 ± 0.33 | 9.55 | 0.73 | – | –
14 | Oc1c(C(c2cccnc2)N2CCOCC2)cc(Cl)c2cccnc12 (centres unmarked) [Compound 109] | 51 ± 2.48 | 51.3 | 32.9 ± 7.06 | 32.4 | 1.55 | – | –
15 | CC1CCN(C(c2cccs2)c2ccc3cccnc3c2O)CC1 (racemic) [Compound 101] | – | – | – | – | 0.65 | – | pIC50 value MES-SA (MES-SA cells): 4.97; IC50 (MES-SA cells; [5]): 10.8 ± 0.18 µM; pIC50 value MES-SA/Dx5 (MES-SA/Dx5 cells): 4.78; IC50 (MES-SA/Dx5 cells; [6]): 16.6 ± 0.81 µM
16 | CCN1CCN(C(c2cccs2)c2ccc3cccnc3c2O)CC1 (centres unmarked) [Compound 116] | 9.06 ± 0.23 | 9.12 | 14.2 ± 1.36 | 14.1 | 0.64 | – | –
17 | CC1CCCCN1Cc1cc(Cl)c2cccnc2c1O (centres unmarked) [Compound 77] | 2.57 ± 0.1 | 2.57 | 0.34 ± 0.03 | 0.339 | 7.57 | 1.51 | IC50 (MES-SA cells; Homo sapiens, MES-SA, read-out: IC50 / μM MES-SA (values in parentheses), presence of 1 μM P-gp inhibitor tariquidar (TQ)): 2.35 µM; IC50 (MES-SA cells; [7]): 2.34 µM; IC50 (MES-SA/Dx5 cells; Homo sapiens, MES-SA/Dx5, read-out: IC50 / μM MES-SA/Dx5 (values in parentheses), presence of 1 μM P-gp inhibitor tariquidar (TQ)): 1.55 µM; SR (MES-SA_TQ / Dx5_TQ) (values in parentheses) (MES-SA/Dx5 cells; fraction of IC50 in P-gp negative vs positive cells, presence of 1 μM TQ): 1.51
18 | Oc1ccc(CN2CCCCCC2)c2cccnc12 [Compound 52] | 7.15 ± 0.27 | 7.08 | 5.84 ± 0.69 | 5.75 | 1.23 | – | –
19 | Oc1c(C(c2ccncc2)N2CCOCC2)ccc2cccnc12 (centres unmarked) [Compound 104] | 15.2 ± 2.74 | 14.8 | 7.14 ± 1.26 | 7.08 | 2.12 | 1.45 | IC50 (MES-SA cells; [7]): 21.9 µM; IC50 (MES-SA/Dx5 cells; [8]): 15.1 µM
20 | CCOC(=O)C1CCN(Cc2ccc(O)c3ncccc23)CC1 [Compound 48] | 4.62 ± 1.03 | 4.47 | 3.54 ± 0.72 | 3.47 | 1.31 | – | –
21 | Oc1c(C(c2ccccn2)N2CCN(c3ccccn3)CC2)ccc2cccnc12 (centres unmarked) [Compound 121] | – | – | – | – | 1.81 | – | pIC50 value MES-SA (MES-SA cells): 4.39; IC50 (MES-SA cells; [5]): 40.9 ± 2.86 µM; pIC50 value MES-SA/Dx5 (MES-SA/Dx5 cells): 4.65; IC50 (MES-SA/Dx5 cells; [6]): 22.6 ± 2.85 µM
22 | OCCN1CCN(C(c2ccccc2)c2ccc3cccnc3c2O)CC1 (centres unmarked) [Compound 119] | – | – | – | – | 1.53 | 1.7 | pIC50 value MES-SA (MES-SA cells): 4.69; IC50 (MES-SA cells; [5]): 20.7 ± 0.97 µM; pIC50 value MES-SA/Dx5 (MES-SA/Dx5 cells): 4.88; IC50 (MES-SA/Dx5 cells; [6]): 13.5 ± 2.55 µM
23 | Oc1c(C(c2ccccc2Cl)N2CCOCC2)ccc2cccnc12 (centres unmarked) [Compound 105] | – | – | – | – | 1.13 | – | pIC50 value MES-SA (MES-SA cells): 4.73; IC50 (MES-SA cells; [5]): 18.45 ± 0.14 µM; pIC50 value MES-SA/Dx5 (MES-SA/Dx5 cells): 4.79; IC50 (MES-SA/Dx5 cells; [6]): 16.4 ± 1.02 µM
24 | Oc1ccc2ccccc2c1CN1CCOCC1 [Compound 69] | > 100 | – | > 100 | – | – | – | –
25 | Oc1ccccc1C(=S)N1CCOCC1 [Compound 66] | > 100 | – | > 100 | – | – | – | –
26 | Oc1c(C(c2ccc(Cl)cc2)N2CCCC2)ccc2cccnc12 (centres unmarked) [Compound 87] | – | – | – | – | 3 | 1.35 | pIC50 value MES-SA (MES-SA cells): 4.71; IC50 (MES-SA cells; [5]): 19.7 ± 2.25 µM; pIC50 value MES-SA/Dx5 (MES-SA/Dx5 cells): 5.18; IC50 (MES-SA/Dx5 cells; [6]): 6.58 ± 0.53 µM
27 | Oc1ccc2ccncc2c1CN1CCCC(C(F)(F)F)C1 (centres unmarked) [Compound 64] | > 100 | – | > 100 | – | – | – | –
28 | CN1CCN(Cc2c(O)ccc3ccccc23)CC1 [Compound 75] | > 100 | – | > 100 | – | – | – | –
29 | CN1CCN(C(c2ccncc2)c2ccc3cccnc3c2O)CC1 (centres unmarked) [Compound 112] | 22.1 ± 2.7 | 21.9 | 11 ± 2.12 | 10.7 | 2.02 | 1.58 | IC50 (MES-SA cells; [7]): 32.4 µM; IC50 (MES-SA/Dx5 cells; [8]): 20.4 µM
30 | Oc1c(C(c2ccccc2Br)N2CCCC2)ccc2cccnc12 (racemic) [Compound 88] | – | – | – | – | 1.98 | 1.55 | pIC50 value MES-SA (MES-SA cells): 4.89; IC50 (MES-SA cells; [5]): 13 ± 1.35 µM; pIC50 value MES-SA/Dx5 (MES-SA/Dx5 cells): 5.18; IC50 (MES-SA/Dx5 cells; [6]): 6.6 ± 0.21 µM
